# From US9452990B2, “Complement pathway modulators and uses thereof” (NOVARTIS AG, priority 2012, dated 2016)
# Structures can show the parent of a compound that is named as a salt. Where two headings read alike, the source gives them in different places.
# Target: human complement factor B (CVF-Bb complex) (Homo sapiens (Human), UniProt P00751)
# Assay: Human Complement Factor B ELISA Assay
# Assay type: biochemical
# Procedure: Human Complement Factor B ELISA Assay
# CVF-Bb complex prepared from purified cobra venom factor (1 μM), recombinant human complement factor B (expressed in drosophila cells and purified using standard methods) and human complement factor D (expressed in E. Coli, refolded and purified using standard methods). CVF-Bb complex at 3 nM concentration was incubated with test compound at various concentrations for 1 hour at room temperature in PBS pH 7.4 containing 10 mM MgCl2 and 0.05% (w/v) CHAPS. Human complement C3 substrate purified from plasma was added to a final concentration of 1 μM. After 1 hour incubation at room temperature, the enzyme reaction was stopped by addition of a cocktail of concentrated pan-protease inhibitors. The product of the reaction, C3a, was quantified by means of an enzyme-linked-immunosorbent assay. IC50 values were calculated from percentage of inhibition of CVF-Bb activity as a function of test compound concentration.
# [1] = CVF-Bb complex 3 nM, 1 hour preincubation with compound at room temperature, human C3 substrate 1 μM, C3a quantified by ELISA, read-out: Factor B IC50
SMILES,IC50 [1],IC50
"COc1cc2nc(N3CCN(C(=O)/C=C/C4CC4)CC3)nc(N)c2c(Cl)c1OC [Example 14, (E)-1-(4-(4-Amino-5-chloro-6,7-dimethoxyquinazolin-2-yl)piperazin-1-yl)-3-cyclopropylprop-2-en-1-one]",3290 nM,
COC[C@H]1CN(C(=O)/C=C/C2CC2)CCN1c1nc(N)c2cc(OC)c(OC)c(F)c2n1 [Example 3],2060 nM,
"COc1cc2c(N)nc(N3CCN(C(=O)C[C@@H](N)c4ccc(C#N)cc4)CC3)nc2c(F)c1OC [Example 44, 4-{(R)-1-Amino-3-[4-(4-amino-8-fluoro-6,7-dimethoxy-quinazolin-2-yl)piperazin-1-yl]-3-oxo-propyl}-benzonitrile hydrochloride]",,10 nM
"CC[C@H]1CN(C(=O)C[C@@H](N)c2ccc(C#N)cc2)CCN1c1nc(N)c2cc(OC)c(OC)c(F)c2n1 [Example 64, 4-{(R)-1-Amino-3-[(S)-4-(4-amino-8-fluoro-6,7-dimethoxy-quinazolin-2-yl)-3-ethyl-piperazin-1-yl]-3-oxo-propyl}-benzonitrile hydrochloride]",,7 nM
"COc1cc2c(N)nc(N3CCN(C(=O)C[C@@H](NCC(F)(F)F)c4ccc(F)cc4)CC3)nc2c(F)c1OC [Example 88, (R)-1-[4-(4-Amino-8-fluoro-6,7-dimethoxy-quinazolin-2-yl)-piperazin-1-yl]-3-(4-fluoro-phenyl)-3-(2,2,2-trifluoro-ethylamino)-propan-1-one]",30 nM,
"CCN[C@H](CC(=O)N1CCN(c2nc(N)c3cc(OC)c(OC)c(F)c3n2)CC1)c1ccc(F)cc1 [Example 84, (R)-1-[4-(4-Amino-8-fluoro-6,7-dimethoxy-quinazolin-2-yl)-piperazin-1-yl]-3-ethylamino-3-(4-fluoro-phenyl)-propan-1-one]",6 nM,
"COc1cc2c(N)nc(N3CCN(C(=O)C[C@@H](N)c4ccccc4)CC3)nc2c(F)c1OC [Example 39, (R)-3-Amino-1-[4-(4-amino-8-fluoro-6,7-dimethoxy-quinazolin-2-yl)-piperazin-1-yl]-3-phenyl-propan-1-one]",230 nM,
"COc1cc2c(N)nc(N3CCN(C(=O)C[C@@H](N)c4ccc(C(F)(F)F)cc4)C[C@@H]3C)nc2c(F)c1OC [Example 61, (R)-3-Amino-1-[(S)-4-(4-amino-8-fluoro-6,7-dimethoxy-quinazolin-2-yl)-3-methyl-piperazin-1-yl]-3-(4-trifluoromethyl-phenyl)-propan-1-one hydrochloride]",,40 nM
"COc1cc2c(N)nc(N3CCN(C(=O)c4cc5cc(C#N)ccc5[nH]4)CC3)nc2c(F)c1OC [Example 18, 2-[4-(4-Amino-8-fluoro-6,7-dimethoxy-quinazolin-2-yl)-piperazine-1-carbonyl]-1H-indole-5-carbonitrile]",20 nM,
"COc1cc2c(N)nc(N3CCN(C(=O)CC4NCc5ccccc54)CC3)nc2c(F)c1OC (stereo not drawn) [Example 112, 1-[4-(4-Amino-8-fluoro-6,7-dimethoxy-quinazolin-2-yl)-piperazin-1-yl]-2-(2,3-dihydro-1H-isoindol-1-yl)-ethanone]",350 nM,
"C#Cc1ccc([C@H](N)CC(=O)N2CCN(c3nc(N)c4cc(OC)c(OC)c(F)c4n3)CC2)cc1 [Example 42, (R)-3-Amino-1-[4-(4-amino-8-fluoro-6,7-dimethoxy-quinazolin-2-yl)-piperazin-1-yl]-3-(4-ethynyl-phenyl)-propan-1-one hydrochloride]",,510 nM
"COc1cc2c(N)nc(N3CCN(C(=O)C[C@@H](N)c4ccccc4)C[C@@H]3C)nc2c(F)c1OC [Example 57, (R)-3-Amino-1-[(S)-4-(4-amino-8-fluoro-6,7-dimethoxy-quinazolin-2-yl)-3-methyl-piperazin-1-yl]-3-phenyl-propan-1-one hydrochloride]",,210 nM
"COc1cc2c(N)nc(N3CCN(C(=O)C[C@@H](N)c4ccc(F)cc4)CC3)nc2c(C#N)c1OC [Example 76, 4-Amino-2-{4-[(R)-3-amino-3-(4-fluoro-phenyl)-propionyl]-piperazin-1-yl}-6,7-dimethoxy-quinazoline-8-carbonitrile]",100 nM,
"COc1cc2c(N)nc(N3CCN(C(=O)/C=C/C4CC4)CC3)nc2c(Br)c1OC [Example 15, (E)-1-(4-(4-Amino-8-bromo-6,7-dimethoxyquinazolin-2-yl)piperazin-1-yl)-3-cyclopropylprop-2-en-1-one]",1280 nM,
"COc1cc2c(N)nc(N3CCN(C(=O)[C@@H]4CCc5ccccc5[C@@H]4N)CC3)nc2c(F)c1OC [Example 104, [4-(4-Amino-8-fluoro-6,7-dimethoxy-quinazolin-2-yl)-piperazin-1-yl]-((1R,2R)-1-amino-1,2,3,4-tetrahydro-naphthalen-2-yl)-methanone]",760 nM,
"COc1cc2c(N)nc(N3C[C@@H](C)N(C(=O)C[C@@H](N)c4ccccc4)C[C@@H]3C)nc2c(F)c1OC [Example 73, (R)-3-Amino-1-[(2R,5S)-4-(4-amino-8-fluoro-6,7-dimethoxy-quinazolin-2-yl)-2,5-dimethyl-piperazin-1-yl]-3-phenyl-propan-1-one]",60 nM,
"COCCCN[C@H](CC(=O)N1CCN(c2nc(N)c3cc(OC)c(OC)c(F)c3n2)CC1)c1ccc(F)cc1 [Example 94, (R)-1-(4-(4-amino-8-fluoro-6,7-dimethoxyquinazolin-2-yl)piperazin-1-yl)-3-(4-fluorophenyl)-3-(3-methoxypropylamino)propan-1-one]",6 nM,
"[2H]C([2H])([2H])N[C@H](CC(=O)N1CCN(c2nc(N)c3cc(OC)c(OC)c(F)c3n2)CC1)c1ccc(F)cc1 [Example 80, (R)-1-(4-(4-Amino-8-fluoro-6,7-dimethoxyquinazolin-2-yl)piperazin-1-yl)-3-(4-fluorophenyl)-3-(d^3-methylamino)propan-1-one hydrochloride]",6 nM,
"COc1cc2c(N)nc(N3CCN(C(=O)C[C@@H](CN)c4ccccc4)CC3)nc2c(F)c1OC [Example 129, (R)-4-Amino-1-[4-(4-amino-8-fluoro-6,7-dimethoxy-quinazolin-2-yl)-piperazin-1-yl]-3-phenyl-butan-1-one]",710 nM,
"COc1cc2c(N)nc(N3CCN(C(=O)C[C@@H](N)c4cccc(C)c4)CC3)nc2c(F)c1OC [Example 40, (R)-3-Amino-1-[4-(4-amino-8-fluoro-6,7-dimethoxy-quinazolin-2-yl)-piperazin-1-yl]-3-m-tolyl-propan-1-one]",220 nM,
COCCOc1c(OC)cc2c(N)nc(N3CCN(C(=O)C[C@@H](N)c4ccc(C#N)cc4)C[C@@H]3C)nc2c1F [Example 71],70 nM,
"COc1cc2c(N)nc(N3CCN(C(=O)C[C@@H](N)c4ccc(F)cc4)C[C@@H]3C)nc2c(F)c1OC [Example 60, (R)-3-Amino-1-[(S)-4-(4-amino-8-fluoro-6,7-dimethoxy-quinazolin-2-yl)-3-methyl-piperazin-1-yl]-3-(4-fluoro-phenyl)-propan-1-one hydrochloride]",,20 nM
"CCC[C@H]1CN(C(=O)c2cc3cc(C#N)ccc3[nH]2)CCN1c1nc(N)c2cc(OC)c(OC)c(F)c2n1 [Example 26, 2-[(S)-4-(4-Amino-8-fluoro-6,7-dimethoxy-quinazolin-2-yl)-3-propyl-piperazine-1-carbonyl]-1H-indole-5-carbonitrile]",11 nM,
"COc1cc2c(N)nc(N3CCN(C(=O)c4cc5cc(C#N)ccc5[nH]4)C[C@@H]3C)nc2c(F)c1OC [Example 23, 2-[(S)-4-(4-Amino-8-fluoro-6,7-dimethoxy-quinazolin-2-yl)-3-methyl-piperazine-1-carbonyl]-1H-indole-5-carbonitrile]",15 nM,
"COCCOc1c(OC)cc2c(N)nc(N3CCN(C(=O)C[C@@H]4CCCN4)CC3)nc2c1F [Example 124, 1-{4-[4-Amino-8-fluoro-6-methoxy-7-(2-methoxy-ethoxy)-quinazolin-2-yl]-piperazin-1-yl}-2-(S)-pyrrolidin-2-yl-ethanone]",5950 nM,
"COc1cc2c(N)nc(N3CCN(C(=O)C[C@@H](N)c4ccccc4)CC3)nc2c(Br)c1OC [Example 81, (R)-3-amino-1-(4-(4-Amino-8-bromo-6,7-dimethoxyquinazolin-2-yl)piperazin-1-yl)-3-phenylpropan-1-one]",510 nM,
"CC[C@H]1CN(C(=O)c2cc3cc(C#N)ccc3[nH]2)CCN1c1nc(N)c2cc(OC)c(OC)c(F)c2n1 [Example 25, 2-[(S)-4-(4-Amino-8-fluoro-6,7-dimethoxy-quinazolin-2-yl)-3-ethyl-piperazine-1-carbonyl]-1H-indole-5-carbonitrile]",6 nM,
"CC[C@H]1CN(C(=O)[C@@H]2CCc3ccccc3[C@@H]2N)CCN1c1nc(N)c2cc(OC)c(OC)c(F)c2n1 [Example 106, [(S)-4-(4-Amino-8-fluoro-6,7-dimethoxy-quinazolin-2-yl)-3-ethyl-piperazin-1-yl]-((1R,2R)-1-amino-1,2,3,4-tetrahydro-naphthalen-2-yl)-methanone]",2660 nM,
"COc1cc2c(N)nc(N3CCN(C(=O)/C=C/C4CC4)CC3)nc2c(Cl)c1OC [Example 13, (E)-1-(4-(4-Amino-8-chloro-6,7-dimethoxyquinazolin-2-yl)piperazin-1-yl)-3-cyclopropylprop-2-en-1-one]",1050 nM,
"COc1cc2c(N)nc(N3CCN(C(=O)C[C@@H](N)c4ccoc4)CC3)nc2c(F)c1OC [Example 35, (R)-3-Amino-1-[4-(4-amino-8-fluoro-6,7-dimethoxy-quinazolin-2-yl)piperazin-1-yl]-3-furan-3-yl-propan-1-one hydrochloride]",,310 nM
